Assay results from US20190016689A1, “NOVEL FLUORINATED QUINAZOLINE DERIVATIVES AS EGFR INHIBITORS” (TRILLIUM THERAPEUTICS INC., priority 2016, published 2019).
Like-named read-outs stand apart in the source and are kept apart here.

Tests used:
EPHA1 = target: T1, EPHA1 (Homo sapiens, UniProt P21709); assay: Binding to EPHA (kinase competition binding, qPCR); settings: 300 nM, read-out: % Control @ 300 nM
T1 construct: T7 phage fusion (kinase-tagged phage) or DNA tag for qPCR; made in house; host or cells: E. coli BL21-derived host (T7 phage) or HEK-293
Description: (§1) The lysates were centrifuged and filtered to remove cell debris. […] All reactions were performed in polystyrene 96-well plates in a final volume of 0.135 ml.

EPHA2 = target: T2, EPHA2 (Homo sapiens, UniProt P29317); assay: Binding to EPHA (kinase competition binding, qPCR); settings: 300 nM, read-out: % Control @ 300 nM
T2 construct: T7 phage fusion (kinase-tagged phage) or DNA tag for qPCR; made in house; host or cells: E. coli BL21-derived host (T7 phage) or HEK-293
Description: as §1

EPHA3 = target: T3, EPHA3 (Homo sapiens, UniProt P29320); assay: Binding to EPHA (kinase competition binding, qPCR); settings: 300 nM, read-out: % Control @ 300 nM
T3 construct: T7 phage fusion (kinase-tagged phage) or DNA tag for qPCR; made in house; host or cells: E. coli BL21-derived host (T7 phage) or HEK-293
Description: as §1

EPHA4 = target: T4, EPHA4 (Homo sapiens, UniProt P54764); assay: Binding to EPHA (kinase competition binding, qPCR); settings: 300 nM, read-out: % Control @ 300 nM
T4 construct: T7 phage fusion (kinase-tagged phage) or DNA tag for qPCR; made in house; host or cells: E. coli BL21-derived host (T7 phage) or HEK-293
Description: as §1

EPHA5 = target: T5, EPHA5 (Homo sapiens, UniProt P54756); assay: Binding to EPHA (kinase competition binding, qPCR); settings: 300 nM, read-out: % Control @ 300 nM
T5 construct: T7 phage fusion (kinase-tagged phage) or DNA tag for qPCR; made in house; host or cells: E. coli BL21-derived host (T7 phage) or HEK-293
Description: as §1

EPHA7 = target: T6, EPHA7 (Homo sapiens, UniProt Q15375); assay: Binding to EPHA (kinase competition binding, qPCR); settings: 300 nM, read-out: % Control @ 300 nM
T6 construct: T7 phage fusion (kinase-tagged phage) or DNA tag for qPCR; made in house; host or cells: E. coli BL21-derived host (T7 phage) or HEK-293
Description: as §1

EPHA8 = target: T7, EPHA8 (Homo sapiens, UniProt P29322); assay: Binding to EPHA (kinase competition binding, qPCR); settings: 300 nM, read-out: % Control @ 300 nM
T7 construct: T7 phage fusion (kinase-tagged phage) or DNA tag for qPCR; made in house; host or cells: E. coli BL21-derived host (T7 phage) or HEK-293
Description: as §1

SF-295 = assay: NCI screening panel (SRB); format: cell-based; settings: Homo sapiens, SF-295 (CNS), 48 h; for CC50: read-out: LC50 (the source's name)
MALME3-M = assay: NCI screening panel (SRB); format: cell-based; settings: Homo sapiens, Malme-3M, MALME3-M (Melanoma), 48 h; for CC50: read-out: LC50 (the source's name)
SK-MEL-5 = assay: NCI screening panel (SRB); format: cell-based; settings: Homo sapiens, SK-MEL-5 (Melanoma), 48 h; for CC50: read-out: LC50 (the source's name)
UO-31 = assay: NCI screening panel (SRB); format: cell-based; settings: Homo sapiens, UO-31 (Renal), 48 h; for CC50: read-out: LC50 (the source's name)
NCI-H322M = assay: cells; settings: Homo sapiens, 48 h; for CC50: read-out: LC50
OVCAR-3 = assay: NCI screening panel (SRB); settings: Homo sapiens, OVCAR-3, 48 h; for CC50: read-out: LC50
[1] = Plasma protein binding (equilibrium dialysis); format: in vitro ADME; settings: pH 7.4, dialysis 6 hours
Description: Prepare a basic solution by dissolving 14.2 g/L Na2HPO4 and 8.77 g/L NaCl in deionized water. Store at 4° C. for up to 7 days. Prepare an acidic solution by dissolving 15.6 g/L NaH2PO4.2H2O and 8.77 g/L NaCl in deionized water. Store at 4° C. for up to 7 days. Titrate the basic solution with the acidic solution to pH 7.4. Store at 4° C. for up to 7 days. Check pH on the day of experiment and adjust if outside specification of 7.4±0.1.
b—Preparation of Dialysis Membranes Soak the dialysis membranes in ultrapure water for 60 minutes to separate strips, then in 20% ethanol for 20 minutes, finally in dialysis buffer for 20 minutes. c—Preparation of Plasma
Thaw the frozen plasma immediately in a 37° C. water bath.
Centrifuge plasma at 3,220 g for 10 minutes at room temperature to remove clots and collect supernatant into a fresh tube. Check and record the pH of the plasma.
Note: a) Only use plasma that has been thawed no more than twice since arrival. b) Only use plasma within the range of pH 7 to pH 8.
The working solutions of test compound and control compound ketoconazole are prepared in 50% water/50% acetonitrile and DMSO at the concentration of 200 μM, respectively. And then remove 3 μL of working solution to mix with 597 μL of human, rat and mouse plasma to achieve final concentration of 1 μM (0.5% DMSO). Vortex thoroughly.
Assemble the dialysis set up following the manufacturer's instructions. Load cells with 120 μL of plasma sample and dialyzed against equal volume of dialysis buffer (PBS). The assay is performed in duplicate. Seal the dialysis plate and place the plate in an incubator at 37° C. with 5% CO2 at approximately 100 rpm for 6 hours. At the end of dialysis, remove seal and pipette 50 μL each of post-dialysis samples from both buffer and plasma chambers into separate tubes in plate.
Add 50 μL of blank plasma to the buffer samples, and an equal volume of PBS to the collected plasma samples. Add 300 μL of room temperature quench solution (acetonitrile containing internal standards (IS, 200 nM Labetalol, 100 nM Alprazolam and 2 μM Ketoprofen)) to precipitate protein. Vortex for 5 minutes. Samples in plate are centrifuged at 3,220 g for 30 minutes at room temperature. Transfer 100 μL of the supernatant to a new plate. The supernatant may be diluted with 100 μL or 200 μL water according to the LC/MS signal response and peak shape. Mix well and analyze samples using LC/MS/MS.

[2] = Chemical stability in simulated intestinal fluid; format: physicochemical; settings: 37° C.
Description: For SIF: Dissolve 6.8 g of KH2PO4 into about 500 mL ultrapure water and adjust the solution to a pH 6.8 with 0.1 M NaOH. Dissolve 10 g of trypsin into ultrapure water. Then the two solutions are mixed well and diluted with ultrapure water to 1000 mL.
The working solutions of test compound and control compound chlorambucil are prepared in DMSO at the concentration of 500 μM.
Place 2 μL of working solution of each sample in order into their proper 96-well rack. Add 198 μL of pre-incubated PBS pH 7.4 or simulated intestinal fluid into each vial of the cap-less Sample plate to achieve a final concentration of […]. The assay is performed in duplicate. Seal using a molded PTFE/Silicone plug. Then transfer the Sample plate to the Eppendorf Thermomixer Comfort plate shaker and shake at 37° C. at 1100 RPM. Take one of the glass vials at designated time points including 0, 30, 60, 120 and 240 min. For each time point, the initiation of the reaction is staggered so all time points are terminated with 1000 μL of cold quench solution (acetonitrile containing internal standards (IS, 200 nM Labetalol, 100 nM Alprazolam and 2 μM Ketoprofen) at the same time. Vortex for 1 minute. Centrifuge the samples in plate at 3,220 g for 5 minutes at 4° C. Transfer 100 μL of the supernatant to a new plate. The supernatant may be diluted with 100 μL or 200 μL water according to the LC/MS signal response and peak shape. Mix well and analyze samples using LC/MS/MS.

[3] = human, read-out: Human Plasma % Bound (converted)
[4] = mouse, read-out: Mouse Plasma % Bound (converted)
[5] = rat, read-out: Rat Plasma % Bound (converted)

T1 sequence (P21709 26-976): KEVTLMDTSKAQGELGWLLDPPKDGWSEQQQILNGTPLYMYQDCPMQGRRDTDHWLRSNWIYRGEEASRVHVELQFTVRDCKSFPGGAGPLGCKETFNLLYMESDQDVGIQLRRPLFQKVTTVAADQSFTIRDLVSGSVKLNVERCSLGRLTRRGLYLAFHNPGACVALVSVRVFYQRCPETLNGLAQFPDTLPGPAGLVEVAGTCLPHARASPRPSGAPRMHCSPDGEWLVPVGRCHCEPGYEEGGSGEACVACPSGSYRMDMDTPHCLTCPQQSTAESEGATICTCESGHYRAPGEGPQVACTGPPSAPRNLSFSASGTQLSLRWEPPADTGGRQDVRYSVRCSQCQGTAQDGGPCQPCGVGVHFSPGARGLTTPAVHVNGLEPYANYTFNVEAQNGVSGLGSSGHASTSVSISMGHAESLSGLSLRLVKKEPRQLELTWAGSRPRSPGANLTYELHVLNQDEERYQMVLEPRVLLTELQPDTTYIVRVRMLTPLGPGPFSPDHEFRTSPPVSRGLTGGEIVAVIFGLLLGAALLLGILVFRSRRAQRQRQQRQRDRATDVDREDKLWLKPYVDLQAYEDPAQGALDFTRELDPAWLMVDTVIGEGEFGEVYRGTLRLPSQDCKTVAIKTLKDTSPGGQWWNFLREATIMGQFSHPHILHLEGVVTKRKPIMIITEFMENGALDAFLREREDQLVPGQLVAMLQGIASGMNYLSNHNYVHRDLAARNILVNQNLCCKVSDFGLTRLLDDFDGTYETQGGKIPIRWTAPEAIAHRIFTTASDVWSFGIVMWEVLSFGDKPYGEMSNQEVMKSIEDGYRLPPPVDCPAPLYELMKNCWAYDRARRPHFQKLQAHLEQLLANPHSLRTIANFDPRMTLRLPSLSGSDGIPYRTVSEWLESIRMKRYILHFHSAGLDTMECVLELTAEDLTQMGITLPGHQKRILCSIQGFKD
T3 sequence (P29320 21-983): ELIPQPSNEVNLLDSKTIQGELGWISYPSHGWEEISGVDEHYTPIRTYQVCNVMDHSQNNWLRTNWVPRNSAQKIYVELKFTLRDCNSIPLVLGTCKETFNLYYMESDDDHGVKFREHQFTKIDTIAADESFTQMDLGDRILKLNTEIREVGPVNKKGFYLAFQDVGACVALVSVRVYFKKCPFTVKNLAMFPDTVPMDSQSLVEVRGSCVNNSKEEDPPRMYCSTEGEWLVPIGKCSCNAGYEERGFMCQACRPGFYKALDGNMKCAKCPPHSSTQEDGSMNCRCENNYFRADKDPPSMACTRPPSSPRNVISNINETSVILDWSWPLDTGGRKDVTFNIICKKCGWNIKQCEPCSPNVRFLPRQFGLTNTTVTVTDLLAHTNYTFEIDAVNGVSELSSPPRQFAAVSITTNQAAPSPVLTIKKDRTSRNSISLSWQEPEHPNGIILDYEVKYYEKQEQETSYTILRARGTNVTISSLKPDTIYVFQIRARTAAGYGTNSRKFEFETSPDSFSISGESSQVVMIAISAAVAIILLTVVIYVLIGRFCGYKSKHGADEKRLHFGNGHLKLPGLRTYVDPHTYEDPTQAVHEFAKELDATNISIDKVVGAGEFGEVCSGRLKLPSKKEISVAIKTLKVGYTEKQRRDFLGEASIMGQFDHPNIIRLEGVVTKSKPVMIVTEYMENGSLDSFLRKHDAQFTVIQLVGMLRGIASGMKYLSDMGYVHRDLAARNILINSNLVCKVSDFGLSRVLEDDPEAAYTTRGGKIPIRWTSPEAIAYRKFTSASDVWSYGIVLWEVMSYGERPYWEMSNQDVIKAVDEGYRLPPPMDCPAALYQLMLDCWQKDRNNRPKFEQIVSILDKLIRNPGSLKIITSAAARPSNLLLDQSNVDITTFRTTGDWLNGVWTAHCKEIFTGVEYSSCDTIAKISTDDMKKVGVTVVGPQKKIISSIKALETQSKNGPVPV
T7 sequence (P29322 28-1005): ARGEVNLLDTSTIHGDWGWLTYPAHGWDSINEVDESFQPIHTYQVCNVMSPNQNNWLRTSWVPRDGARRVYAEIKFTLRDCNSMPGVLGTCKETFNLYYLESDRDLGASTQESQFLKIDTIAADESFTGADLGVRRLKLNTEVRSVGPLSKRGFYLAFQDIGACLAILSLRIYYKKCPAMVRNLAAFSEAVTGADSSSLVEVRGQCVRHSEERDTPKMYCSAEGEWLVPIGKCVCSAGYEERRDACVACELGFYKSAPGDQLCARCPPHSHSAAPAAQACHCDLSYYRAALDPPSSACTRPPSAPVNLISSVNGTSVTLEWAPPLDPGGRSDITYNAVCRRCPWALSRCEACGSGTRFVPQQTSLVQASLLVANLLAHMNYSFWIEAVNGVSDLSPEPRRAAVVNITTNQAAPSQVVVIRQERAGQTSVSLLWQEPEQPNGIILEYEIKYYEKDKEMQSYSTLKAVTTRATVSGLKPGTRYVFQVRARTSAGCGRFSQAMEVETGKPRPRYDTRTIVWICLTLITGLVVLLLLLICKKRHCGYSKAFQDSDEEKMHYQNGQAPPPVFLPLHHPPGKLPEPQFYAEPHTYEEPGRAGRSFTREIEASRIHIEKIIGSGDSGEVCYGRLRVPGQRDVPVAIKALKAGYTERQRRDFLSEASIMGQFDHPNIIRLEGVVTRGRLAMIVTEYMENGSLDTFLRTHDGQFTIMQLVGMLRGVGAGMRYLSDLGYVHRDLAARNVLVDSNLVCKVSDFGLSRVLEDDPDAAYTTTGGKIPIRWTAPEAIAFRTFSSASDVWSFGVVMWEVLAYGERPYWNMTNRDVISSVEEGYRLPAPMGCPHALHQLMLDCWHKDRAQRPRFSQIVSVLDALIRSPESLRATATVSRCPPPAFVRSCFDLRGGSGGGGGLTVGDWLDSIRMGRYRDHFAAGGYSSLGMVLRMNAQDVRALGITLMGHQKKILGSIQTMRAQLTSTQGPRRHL
T5 sequence (P54756 25-1037): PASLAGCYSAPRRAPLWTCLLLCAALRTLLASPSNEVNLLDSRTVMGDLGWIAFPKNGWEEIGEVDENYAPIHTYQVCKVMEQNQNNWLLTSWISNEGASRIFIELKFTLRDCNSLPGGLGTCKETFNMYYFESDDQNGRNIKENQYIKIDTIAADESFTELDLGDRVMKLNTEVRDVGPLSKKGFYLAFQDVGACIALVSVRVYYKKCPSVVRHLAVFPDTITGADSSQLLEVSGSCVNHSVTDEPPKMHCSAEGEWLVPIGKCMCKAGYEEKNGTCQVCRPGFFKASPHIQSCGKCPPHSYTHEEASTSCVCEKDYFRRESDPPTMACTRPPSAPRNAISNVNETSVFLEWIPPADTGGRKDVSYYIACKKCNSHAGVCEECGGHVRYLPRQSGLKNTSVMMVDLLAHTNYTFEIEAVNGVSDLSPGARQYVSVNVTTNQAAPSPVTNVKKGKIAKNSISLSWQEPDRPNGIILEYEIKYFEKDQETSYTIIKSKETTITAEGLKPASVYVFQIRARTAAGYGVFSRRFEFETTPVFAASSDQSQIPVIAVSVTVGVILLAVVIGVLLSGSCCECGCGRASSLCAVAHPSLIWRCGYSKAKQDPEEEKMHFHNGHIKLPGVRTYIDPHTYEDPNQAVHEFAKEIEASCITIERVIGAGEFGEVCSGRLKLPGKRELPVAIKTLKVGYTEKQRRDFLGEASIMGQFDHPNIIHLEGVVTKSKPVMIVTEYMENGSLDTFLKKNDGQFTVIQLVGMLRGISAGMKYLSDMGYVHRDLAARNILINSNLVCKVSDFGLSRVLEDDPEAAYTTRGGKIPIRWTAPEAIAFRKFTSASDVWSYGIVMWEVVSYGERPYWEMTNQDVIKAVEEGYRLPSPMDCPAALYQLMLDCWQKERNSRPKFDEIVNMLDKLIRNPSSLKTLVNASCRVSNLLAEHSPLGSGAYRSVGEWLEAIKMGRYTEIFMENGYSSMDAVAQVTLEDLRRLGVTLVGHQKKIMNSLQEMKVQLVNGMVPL
T2 sequence (P29317 24-976): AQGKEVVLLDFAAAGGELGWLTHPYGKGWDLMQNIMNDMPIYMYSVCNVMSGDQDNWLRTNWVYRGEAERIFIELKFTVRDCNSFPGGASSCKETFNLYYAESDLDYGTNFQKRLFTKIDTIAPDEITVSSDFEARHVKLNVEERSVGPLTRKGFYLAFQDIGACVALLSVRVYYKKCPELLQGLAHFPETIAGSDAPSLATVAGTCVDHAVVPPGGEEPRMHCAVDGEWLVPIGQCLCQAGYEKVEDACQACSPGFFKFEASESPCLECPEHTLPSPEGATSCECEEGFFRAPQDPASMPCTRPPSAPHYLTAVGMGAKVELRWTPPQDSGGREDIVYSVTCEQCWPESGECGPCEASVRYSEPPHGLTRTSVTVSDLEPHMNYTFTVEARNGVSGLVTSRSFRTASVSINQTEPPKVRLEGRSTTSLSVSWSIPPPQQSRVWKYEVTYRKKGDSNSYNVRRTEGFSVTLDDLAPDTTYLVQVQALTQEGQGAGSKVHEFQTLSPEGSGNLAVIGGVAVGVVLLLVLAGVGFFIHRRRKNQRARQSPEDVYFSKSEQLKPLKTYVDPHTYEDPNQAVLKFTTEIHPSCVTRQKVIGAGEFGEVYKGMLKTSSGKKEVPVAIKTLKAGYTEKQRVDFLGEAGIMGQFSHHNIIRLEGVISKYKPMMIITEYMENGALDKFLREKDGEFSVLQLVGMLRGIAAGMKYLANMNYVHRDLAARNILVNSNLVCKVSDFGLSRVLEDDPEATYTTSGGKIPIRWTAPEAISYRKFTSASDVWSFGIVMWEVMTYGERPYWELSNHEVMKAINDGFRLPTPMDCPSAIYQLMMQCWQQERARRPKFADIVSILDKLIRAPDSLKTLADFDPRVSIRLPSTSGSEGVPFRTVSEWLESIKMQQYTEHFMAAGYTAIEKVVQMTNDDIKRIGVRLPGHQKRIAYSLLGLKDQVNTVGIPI

| SMILES | remaining binding at 0.3 µM (EPHA1) [%] | remaining binding at 0.3 µM (EPHA2) [%] | remaining binding at 0.3 µM (EPHA3) [%] | remaining binding at 0.3 µM (EPHA4) [%] | remaining binding at 0.3 µM (EPHA5) [%] | remaining binding at 0.3 µM (EPHA7) [%] | remaining binding at 0.3 µM (EPHA8) [%] | GI50 (SF-295) [µM] | CC50 (SF-295) [µM] | GI50 (MALME3-M) [µM] | CC50 (MALME3-M) [µM] | GI50 (SK-MEL-5) [µM] | CC50 (SK-MEL-5) [µM] | GI50 (UO-31) [µM] | CC50 (UO-31) [µM] | GI50 (NCI-H322M) [µM] | CC50 (NCI-H322M) [µM] | GI50 (OVCAR-3) [µM] | CC50 (OVCAR-3) [µM] | fraction unbound at 6 h, 1 μM [1, 3] | other results |
| --- | --- | --- | --- | --- | --- | --- | --- | --- | --- | --- | --- | --- | --- | --- | --- | --- | --- | --- | --- | --- | --- |
| CN(C)C/C=C/C(=O)Nc1cc2c(Nc3ccc(F)c(Cl)c3F)ncnc2cc1OCCOC(F)F.O=C(O)/C=C\C(=O)O.O=C(O)/C=C\C(=O)O [Example I-9-MA, (E)-N-[4-(3-chloro-2,4-difluoro-anilino)-7-[2-(difluoromethoxy)ethoxy]quinazolin-6-yl]-4-(dimethylamino)but-2-enamide di-maleic acid salt] | 34 | 92 | 46 | 51 | 51 | 56 | 40 | 2.05 | 33 | 1.42 | 6.97 | 1.65 | 7.39 | < 0.01 | 14.6 | < 0.01 | 28.2 | 0.0811 | 7.44 | – | – |
| CN(C)C/C=C/C(=O)Nc1cc2c(Nc3ccc(F)c(Cl)c3)ncnc2cc1O[C@H]1CCOC1 [Afatinib, reference compound] | – | – | – | – | – | – | – | – | – | – | – | – | – | – | – | – | – | – | – | 0.08 | fraction unbound at 6 h, 1 μM [1, 4]: 0.0666; fraction unbound at 6 h, 1 μM [1, 5]: 0.0896; Remaining Percentage (%) in Simulated Intestinal Fluid ([2]; 120 min): 104.51%; Remaining Percentage (%) in Simulated Intestinal Fluid ([2]; 240 min): 104.31% |
| CN(C)C/C=C/C(=O)Nc1cc2c(Nc3cccc(Cl)c3F)ncnc2cc1OCCOC(F)F.O=C(O)/C=C\C(=O)O [Example I-5-MA, (E)-N-[4-(3-chloro-2-fluoro-anilino)-7-[2-(difluoromethoxy)ethoxy]quinazolin-6-yl]-4-(dimethylamino)but-2-enamide dimaleic acid salt] | – | – | – | – | – | – | – | – | – | – | – | – | – | – | – | – | – | – | – | 0.117 | fraction unbound at 6 h, 1 μM [1, 4]: 0.0975; fraction unbound at 6 h, 1 μM [1, 5]: 0.0771; Remaining Percentage (%) in Simulated Intestinal Fluid ([2]; 120 min): 97.51%; Remaining Percentage (%) in Simulated Intestinal Fluid ([2]; 240 min): 91.51% |
| O=C(/C=C/CN1CCCCC1)Nc1cc2c(Nc3ccc(F)c(Cl)c3F)ncnc2cc1OCCOC(F)F.O=C(O)/C=C\C(=O)O.O=C(O)/C=C\C(=O)O [Example I-10-MA, (E)-N-[4-(3-chloro-2,4-difluoro-anilino)-7-[2-(difluoromethoxy)ethoxy]quinazolin-6-yl]-4-(1-piperidyl)but-2-enamide di-maleic acid salt] | 24 | 80 | 45 | 50 | 49 | 40 | 33 | 1.91 | 16 | 1.45 | 7.44 | 1.63 | 6.25 | 0.0134 | 39.1 | < 0.01 | 30.3 | 0.39 | 16.8 | – | – |
